Laboratory results: patent publication US5763395A, “Stabilized lanthionine bacteriocin compositions” (Ambi Inc., priority 1995, dated 1998)
Values joined by “and” are separate entries in the source; they are usually repeats but may differ in a detail not shown here. Equal values may be shown once.

Key:
[1] = Nisin stability in topical germicide formulations under stressed conditions (RPHPLC); conditions: for Residual nisin concentration as a percentage of the theoretical concentration: 5 days 40° C., pH 6, additive 1 mM (nisin = control)
Excerpt: i) Analytical reverse phase high pressure liquid chromatography (RPHPLC). The analyte (nisin) in solution is passed through a column of hydrophic beads to which the nisin tends to bind. The solution flowing through the column is then made progressively more hydrophobic by increasing acetonitrile concentration until it causes the nisin to be released from the beads and eluted from the column. The emergence of the nisin from the column is detected by measuring the absorbance of light at 210 nm by the effluent.
In order to expedite the execution of these experiments the formulations were subjected to "stressed" conditions, ie pH 6 and 40° C.; both intended to accelerate any degradation effects taking place. The stability of nisin in the formulations was evaluated by RPHPLC.
Formulations were prepared with nisin at 25 μg/ml and titrated to pH 6. […]

[2] = Commonly used antioxidants tested for protection of nisin in formulation; assay type: physicochemical; conditions: methods of Example 2
Method: In order to further analyze the nisin degradation associated with one particular surfactant/emulsifier, polysorbate, material was obtained from as many manufacturers as possible. Where possible, multiple production batches were obtained from each manufacturer. Other emulsifiers or surfactants believed to closely resemble polysorbate in their properties as well as dissimilar surfactants were also tested. An oral rinse formulation containing nisin was prepared using each of these compounds and, after incubation, samples were analyzed to evaluate nisin stability.
A number of commonly used antioxidants were tested for their ability to protect nisin in formulation using the methods described in Example 2. None of the compounds tested gave satisfactory protection of nisin.

[3] = Glycerol/sorbitol batches and chelating agents screened for effects on nisin stability in oral rinse formulations (RPHPLC); assay type: physicochemical
Method: i) Analytical reverse phase high pressure liquid chromatography (RPHPLC).
Formulations of nisin useful as oral rinses comprising EDTA and the humectant glycerol were also prepared and analyzed by RPHPLC.
Glycerol and sorbitol from a number of sources, and a number of alternative chelators, were screened (Tables 2 and 3).

[4] = T-MAZ 20 1%, 6 days at 40° C., initial nisin 25 μg/ml, label nisin = no methionine
[5] = T-MAZ 20 BATCH 348, 2 weeks at 40° C., nisin formulated at 25 μg/ml, label nisin = water control
[6] = T-MAZ 20 BATCH 357, 2 weeks at 40° C., nisin formulated at 25 μg/ml, label nisin = water control
[7] = T-MAZ 20 batch 348, EDTA 1 mM, nisin 25 μg/ml, samples jd6-35-H 49-52
[8] = T-MAZ 20 batch 348, citrate 0.1%, nisin 25 μg/ml, samples jd6-35-H 53-56
[9] = T-MAZ 20 batch 348, citrate 0.3%, nisin 25 μg/ml, samples jd6-35-H 57-60
[10] = T-MAZ 20 batch 348, citrate 1.0%, nisin 25 μg/ml, samples jd6-35-H 61-64
[11] = T-MAZ 20 batch 357, EDTA 1 mM, nisin 25 μg/ml, samples jd6-35-H 33-36
[12] = T-MAZ 20 batch 357, citrate 0.1%, nisin 25 μg/ml, samples jd6-35-H 37-40
[13] = T-MAZ 20 batch 357, citrate 0.3%, nisin 25 μg/ml, samples jd6-35-H 41-44
[14] = T-MAZ 20 batch 357, citrate 1.0%, nisin 25 μg/ml, samples jd6-35-H 45-48

COC(=O)C(N)CCSC (racemic) [DL-methionine methyl ester]
Residual nisin concentration [1, 4]: 21.9 µg/mL and 20.8 µg/mL

CS(=O)(=O)CCC(N)C(=O)O (racemic) [DL-methionine sulfone]
Residual nisin concentration [1, 4]: 8.6 µg/mL

C[S+]([O-])CCC(N)C(=O)O (racemic) [DL-methionine sulfoxide]
Residual nisin concentration [1, 4]: 8.6 µg/mL

CSCCC(N)C(=O)O (racemic) [DL-methionine]
Residual nisin concentration [1, 4]: 19.7 µg/mL

CSCCC(O)C(=O)O (racemic) [MHA, 2-hydroxy-4-(methylthio)butanoic acid]
Residual nisin concentration ([1]; T-MAZ 20 1%, 6 days at 40° C., initial nisin 25 μg/ml, label nisin = no methionine, listed as methionine hydroxy analog (MHA Novus)): 19.8 µg/mL | Residual nisin concentration ([1]; T-MAZ 20 1%, 6 days at 40° C., initial nisin 25 μg/ml, label nisin = no methionine, listed as methionine hydroxy analog (Sigma)): 18.1 µg/mL | Residual nisin concentration [1, 5]: 23.4 µg/mL | Residual nisin concentration [1, 6]: 22.5 µg/mL

O[C@H](CS)[C@H](O)CS (racemic) [dithiothreitol]
Protection of nisin in formulation by antioxidants, in words [2]: aggravated the stability problem

N[C@@H](CS)C(=O)O [CySH, cysteine]
Residual nisin concentration as a percentage of the theoretical concentration [1, 7]: 51% | Residual nisin concentration as a percentage of the theoretical concentration [1, 8]: 36% | Residual nisin concentration as a percentage of the theoretical concentration [1, 9]: 29% | Residual nisin concentration as a percentage of the theoretical concentration [1, 10]: 33% | Residual nisin concentration as a percentage of the theoretical concentration [1, 11]: 85% | Residual nisin concentration as a percentage of the theoretical concentration [1, 12]: 29% | Residual nisin concentration as a percentage of the theoretical concentration [1, 13]: 36% | Residual nisin concentration as a percentage of the theoretical concentration [1, 14]: 31%

CSCC[C@H](N)C(=O)O [L-methionine]
Residual nisin concentration [1, 4]: 19.9 µg/mL

NCCCC[C@H](N)C(=O)O [Lys, lysine]
Residual nisin concentration as a percentage of the theoretical concentration [1, 7]: 56% | Residual nisin concentration as a percentage of the theoretical concentration [1, 8]: 45% | Residual nisin concentration as a percentage of the theoretical concentration [1, 9]: 47% | Residual nisin concentration as a percentage of the theoretical concentration [1, 10]: 49% | Residual nisin concentration as a percentage of the theoretical concentration [1, 11]: 80% | Residual nisin concentration as a percentage of the theoretical concentration [1, 12]: 71% | Residual nisin concentration as a percentage of the theoretical concentration [1, 13]: 71% | Residual nisin concentration as a percentage of the theoretical concentration [1, 14]: 71%

O=C1O[C@H]([C@@H](O)CO)C(O)=C1O [ascorbate, ascorbic acid]
Protection of nisin in formulation by antioxidants, in words [2]: aggravated the stability problem

O=C(O)CC(O)(CC(=O)O)C(=O)O [citrate]
Effect of humectant (glycerol, sorbitol) and chelating agent on nisin stability, in words [3]: superior to EDTA

N[C@@H](CS(=O)(=O)O)C(=O)O [cysteic acid]
Residual nisin concentration [1, 5]: 9.6 µg/mL | Residual nisin concentration [1, 6]: 19.5 µg/mL

N[C@@H](CSSC[C@H](N)C(=O)O)C(=O)O [cystine]
Residual nisin concentration [1, 5]: 9.0 µg/mL | Residual nisin concentration [1, 6]: 11.1 µg/mL

N[C@@H](CSC[C@H](N)C(=O)O)C(=O)O [lanthionine]
Residual nisin concentration [1, 5]: 10.7 µg/mL | Residual nisin concentration [1, 6]: 18.2 µg/mL

CSCC[C@H](N)C(=O)O [methionine]
Residual nisin concentration [1, 5]: 23.3 µg/mL | Residual nisin concentration [1, 6]: 23.2 µg/mL | Residual nisin concentration as a percentage of the theoretical concentration [1, 7]: 80% | Residual nisin concentration as a percentage of the theoretical concentration [1, 8]: 76% | Residual nisin concentration as a percentage of the theoretical concentration [1, 9]: 73% | Residual nisin concentration as a percentage of the theoretical concentration [1, 10]: 73% | Residual nisin concentration as a percentage of the theoretical concentration [1, 11]: 84% | Residual nisin concentration as a percentage of the theoretical concentration [1, 12]: 75% | Residual nisin concentration as a percentage of the theoretical concentration [1, 13]: 76% | Residual nisin concentration as a percentage of the theoretical concentration [1, 14]: 73%

O=S([O-])[O-].[Na+].[Na+] [sodium sulfite]
Protection of nisin in formulation by antioxidants, in words [2]: aggravated the stability problem

C1CSCN1 [thizaolidine, thiazolidine]
Residual nisin concentration [1, 5]: 14.9 µg/mL | Residual nisin concentration [1, 6]: 17.3 µg/mL | Stabilization of nisin from degradation by sulfur-containing compounds, in words ([1]; nisin 25 μg/ml, T-MAZ 20, propyleneglycol, 1-propanol, EDTA or citrate, pH 6, 40° C.): To a lesser degree, nisin was also stabilized
